Measured values as given in patent publication US20090312414A1, “Treatment Of Lower Urinary Tract Dysfunction With CB2-Receptor-Selective Agonists” (priority 2008, published 2009).

Experiments:
[1] = Actual solubility in aqueous buffers; assay type: physicochemical; conditions: aqueous buffer
Description: The actual solubility of certain compounds of the invention was assessed in aqueous buffers and final concentration of compounds was determined using HPLC and spectrophotometer methodologies.

[2] = biological target: CB2 receptor (Homo sapiens, UniProt P34972); assay: CB2 binding assay (displacement of radiolabeled agonist)
[3] = biological target: CB1 receptor (Homo sapiens, UniProt P21554); assay: biochemical; assay type: binding; conditions: displaces 50% of a radiolabeled agonist
[4] = test system: isolated detrusor from rats with partial urethral obstruction; assay: Carbachol-induced contractions in bladder strips from PUO rats; assay type: ex vivo, rat; conditions: strips from PUO rats treated for 2 weeks
Description: The effect of chronic treatment with the compound of Formula I was studied in contractility studies with isolated bladder strips from rats with PUO after 2 weeks of treatment with the compound of Formula I.
Bladder strips (2×2×6 mm) were dissected from PUO rat bladders. Silk ligatures were applied at both ends of the preparations which then were mounted on metal prongs in 5 ml aerated (95% O2 and 5% CO2) tissue baths (37° C.) containing Krebs solution. Mechanical activity was registered with Grass FT 03C force transducers connected to a Grass Polygraph model 7E. The preparations were stretched to a tension of approximately 10 mN and left to equilibrate for 45 minutes to attain a stable resting tonus. To establish the viability of the preparations and to determine a standard contractile level, preparations were exposed to a 60 mM K^+ Krebs solution. The effects of cumulative addition of carbachol, a non-selective muscarininc agonist (1 nM-0.1 mM), were studied in strip preparations from vehicle-treated and compound of Formula I-treated rats with PUO.
Transmural activation of nerves was performed with two platinum electrodes, placed in parallel to the sides of the strips in the organ baths. […] All contractile responses were expressed as a percentage of the contraction elicited by 60 mM K^+ Krebs solution. […]

Sequence of CB2 receptor (P34972 whole entry): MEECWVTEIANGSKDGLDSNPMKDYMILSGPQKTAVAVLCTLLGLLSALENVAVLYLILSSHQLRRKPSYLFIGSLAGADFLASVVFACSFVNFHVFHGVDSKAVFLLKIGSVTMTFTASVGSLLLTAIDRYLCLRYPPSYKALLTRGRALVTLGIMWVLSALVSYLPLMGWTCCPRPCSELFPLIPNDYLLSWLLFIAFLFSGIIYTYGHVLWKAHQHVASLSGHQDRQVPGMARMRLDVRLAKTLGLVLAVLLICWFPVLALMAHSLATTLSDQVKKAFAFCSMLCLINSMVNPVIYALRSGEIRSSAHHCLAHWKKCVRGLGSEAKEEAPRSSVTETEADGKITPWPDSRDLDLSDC
Sequence of CB1 receptor (P21554 whole entry): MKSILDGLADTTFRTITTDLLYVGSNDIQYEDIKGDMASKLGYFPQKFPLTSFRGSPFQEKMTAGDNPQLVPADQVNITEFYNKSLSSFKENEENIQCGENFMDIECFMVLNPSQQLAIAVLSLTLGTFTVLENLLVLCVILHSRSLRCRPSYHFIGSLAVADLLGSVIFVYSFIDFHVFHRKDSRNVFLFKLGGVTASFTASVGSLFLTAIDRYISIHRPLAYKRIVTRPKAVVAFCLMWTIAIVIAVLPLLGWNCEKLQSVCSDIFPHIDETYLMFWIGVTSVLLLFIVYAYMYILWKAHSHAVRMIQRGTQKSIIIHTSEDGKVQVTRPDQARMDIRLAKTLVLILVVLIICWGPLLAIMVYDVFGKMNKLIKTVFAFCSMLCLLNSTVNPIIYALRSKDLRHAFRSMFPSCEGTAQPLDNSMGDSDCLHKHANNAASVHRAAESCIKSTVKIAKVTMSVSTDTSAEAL

Question: Which results are given for `CCCCCCC(C)(C)c1cc(O)c([C@H]2CC(=O)[C@H]3C[C@@H]2C3(C)C)c(OC(=O)/C=C/C(=O)O)c1` [Formula I]?
Answer: solubility [1]: > 10000 µg/mL; CB2/CB1 affinity ratio [2]: 34; IC50 ([2]; displaces 50% of a radiolabeled agonist): 19.4 nM; IC50 [3]: 660 nM; Carbachol-induced detrusor contractions vs vehicle-treated PUO rats ([4]; carbachol 1 nM to 1 μM): no differences; Maximal response to carbachol vs vehicle-treated PUO rats ([4]; simultaneous curve fitting, p<0.0008): significant increase
